# Measured values taken from BindingDB's records for doi:10.1021/jm00079a004 (National Institute of Diabetes and Digestive and Kidney …, 1992).
# Target: Sigma non-opioid intracellular receptor 1 (Cavia porcellus)
# Assay: Displacement of [3H]-(+) -3PPP from sigma receptor in guinea pig brain membranes
row,SMILES,Ki
1,C=CCN(CCc1ccc(Cl)c(Cl)c1)CCN1CCCC1,1.4 nM
2,CN(CCc1ccc(Cl)cc1)CCN1CCCC1,1.5 nM
3,CCN(CC)CCN(C)CCc1ccc(Cl)c(Cl)c1,0.73 nM
4,CN(CCc1ccccc1)CCN1CCCC1,7.4 nM
5,CC(CN(C)CCc1ccc(Cl)c(Cl)c1)N(C)C (stereo unspecified),1.5 nM
6,CNCCN(C)CCc1ccc(Cl)c(Cl)c1,5.8 nM
7,CN(CCCN1CCCC1)CCc1ccc(Cl)c(Cl)c1,1.8 nM
8,CCN(CCc1ccc(Cl)c(Cl)c1)CCN1CCCC1,0.51 nM
9,CN(CCN1CCCC1)Cc1ccc(Cl)c(Cl)c1,0.38 nM
10,CN(C)CCNCCc1ccc(Cl)c(Cl)c1,20 nM
11,CN(CCc1ccc2ccccc2c1)CCN1CCCC1,2.1 nM
